According to patent US20250340557A1, “PYRIMIDINE DERIVATIVE” (ASKA PHARMACEUTICAL CO., LTD., priority 2022, published 2025):

What follows are molecules tested against T1, human mPGES-1 (Homo sapiens, UniProt O14684) (assay: Test for mPGES-1 inhibitory activity (microsomal enzyme, PGE2 EIA)). Settings: microsomes of COS-1 cells transfected with human mPGES-1 cDNA; PGH2 1 μM; 4° C., 4 minutes; PGE2 by EIA; read-out: h mPGES1 IC50.
T1 construct: made in house; host or cells: COS-1 cells (transient transfection; microsomal fraction used as enzyme)
T1 sequence (O14684 1-152): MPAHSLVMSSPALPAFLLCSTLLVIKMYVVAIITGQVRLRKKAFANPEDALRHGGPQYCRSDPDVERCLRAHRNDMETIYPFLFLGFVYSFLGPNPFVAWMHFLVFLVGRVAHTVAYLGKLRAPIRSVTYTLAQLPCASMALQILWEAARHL
Type: biochemical
How it was run: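 IC50 values were derived from EIA-quantified PGE2 after a 4 min, 4 °C reaction with PGH2 at 1 μM final, stopped with ferric chloride/citric acid. Beforehand, compound (2% DMSO final) sat 15 min at 4 °C with human mPGES-1 microsomes from transiently transfected COS-1 cells. Buffer was sodium phosphate pH 7.2 containing 2.5 mM reduced glutathione and 1 mM EDTA.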
For `Cc1nc(-c2c(C(F)(F)F)ccc(CNC(=O)[C@H]3C[C@H](OCc4cc(F)cc(Cl)c4)C3)c2F)[nH]c(=O)c1F` [Example 228, trans-3-[(3-chloro-5-fluorobenzyl)oxy]-N-[2-fluoro-3-(5-fluoro-4-methyl-6-oxo-1,6-dihydropyrimidin-2-yl)-4-(trifluoromethyl)benzyl]cyclobutane-1-carboxamide], the IC50 was under 1 nM.
`CCc1nc(-c2c(C(F)(F)F)ccc(CNC(=O)[C@H]3C[C@H](OCc4ccccc4Cl)C3)c2F)[nH]c(=O)c1F` [Example 229, trans-3-[(2-chlorobenzyl)oxy]-N-[3-(4-ethyl-5-fluoro-6-oxo-1,6-dihydropyrimidin-2-yl)-2-fluoro-4-(trifluoromethyl)benzyl]cyclobutane-1-carboxamide] was tested, and the IC50 was under 1 nM.
With `CCc1nc(-c2c(C(F)(F)F)ccc(CNC(=O)[C@H]3C[C@H](OCc4cccc(Cl)c4)C3)c2F)[nH]c(=O)c1F` [Example 230, trans-3-[(3-chlorobenzyl)oxy]-N-[3-(4-ethyl-5-fluoro-6-oxo-1,6-dihydropyrimidin-2-yl)-2-fluoro-4-(trifluoromethyl)benzyl]cyclobutane-1-carboxamide] the IC50 was under 1 nM.
For `CCc1nc(-c2c(C(F)(F)F)ccc(CNC(=O)[C@H]3C[C@H](OCc4ccc(Cl)cc4)C3)c2F)[nH]c(=O)c1F` [Example 231, trans-3-[(4-chlorobenzyl)oxy]-N-[3-(4-ethyl-5-fluoro-6-oxo-1,6-dihydropyrimidin-2-yl)-2-fluoro-4-(trifluoromethyl)benzyl]cyclobutane-1-carboxamide], the IC50 was under 1 nM.
Molecule `CCc1nc(-c2c(C(F)(F)F)ccc(CNC(=O)[C@H]3C[C@H](OCc4ccccc4C(F)(F)F)C3)c2F)[nH]c(=O)c1F` [Example 232, trans-N-[3-(4-ethyl-5-fluoro-6-oxo-1,6-dihydropyrimidin-2-yl)-2-fluoro-4-(trifluoromethyl)benzyl]-3-{[2-(trifluoromethyl)benzyl]oxy}cyclobutane-1-carboxamide] has an IC50 of under 1 nM.
`CCc1nc(-c2c(C(F)(F)F)ccc(CNC(=O)[C@H]3C[C@H](OCc4cccc(C(F)(F)F)c4)C3)c2F)[nH]c(=O)c1F` [Example 233, trans-N-[3-(4-ethyl-5-fluoro-6-oxo-1,6-dihydropyrimidin-2-yl)-2-fluoro-4-(trifluoromethyl)benzyl]-3-{[3-(trifluoromethyl)benzyl]oxy}cyclobutane-1-carboxamide] gave an IC50 of under 1 nM.
In the case of `CCc1nc(-c2c(C(F)(F)F)ccc(CNC(=O)[C@H]3C[C@H](OCc4ccc(C(F)(F)F)cc4)C3)c2F)[nH]c(=O)c1F` [Example 234, trans-N-[3-(4-ethyl-5-fluoro-6-oxo-1,6-dihydropyrimidin-2-yl)-2-fluoro-4-(trifluoromethyl)benzyl]-3-{[4-(trifluoromethyl)benzyl]oxy}cyclobutane-1-carboxamide], the IC50 is reported as under 1 nM.
Work on `CCc1nc(-c2c(C(F)(F)F)ccc(CNC(=O)[C@H]3C[C@H](OCc4ccc(F)cc4F)C3)c2F)[nH]c(=O)c1F` [Example 235, trans-3-[(2,4-difluorobenzyl)oxy]-N-[3-(4-ethyl-5-fluoro-6-oxo-1,6-dihydropyrimidin-2-yl)-2-fluoro-4-(trifluoromethyl)benzyl]cyclobutane-1-carboxamide] yielded an IC50 of 1.1 nM.
In the case of `CCc1nc(-c2c(C(F)(F)F)ccc(CNC(=O)[C@H]3C[C@H](OCc4ccc(Cl)cc4F)C3)c2F)[nH]c(=O)c1F` [Example 236, trans-3-[(4-chloro-2-fluorobenzyl)oxy]-N-[3-(4-ethyl-5-fluoro-6-oxo-1,6-dihydropyrimidin-2-yl)-2-fluoro-4-(trifluoromethyl)benzyl]cyclobutane-1-carboxamide], the IC50 is reported as under 1 nM.
`CCc1nc(-c2c(C(F)(F)F)ccc(CNC(=O)[C@H]3C[C@H](OCc4ccc(F)c(F)c4)C3)c2F)[nH]c(=O)c1F` [Example 237, trans-3-[(3,4-difluorobenzyl)oxy]-N-[3-(4-ethyl-5-fluoro-6-oxo-1,6-dihydropyrimidin-2-yl)-2-fluoro-4-(trifluoromethyl)benzyl]cyclobutane-1-carboxamide] was tested, and the IC50 was under 1 nM.
`CCc1nc(-c2c(C(F)(F)F)ccc(CNC(=O)[C@H]3C[C@H](OCc4cc(F)cc(F)c4)C3)c2F)[nH]c(=O)c1F` [Example 238, trans-3-[(3,5-difluorobenzyl)oxy]-N-[3-(4-ethyl-5-fluoro-6-oxo-1,6-dihydropyrimidin-2-yl)-2-fluoro-4-(trifluoromethyl)benzyl]cyclobutane-1-carboxamide] showed an IC50 of under 1 nM.
In the case of `CCc1nc(-c2c(C(F)(F)F)ccc(CNC(=O)[C@H]3C[C@H](OCc4cccc(F)c4)C3)c2F)[nH]c(=O)c1F` [Example 239, trans-N-[3-(4-ethyl-5-fluoro-6-oxo-1,6-dihydropyrimidin-2-yl)-2-fluoro-4-(trifluoromethyl)benzyl]-3-[(3-fluorobenzyl)oxy]cyclobutane-1-carboxamide], the IC50 is reported as under 1 nM.
`CCc1nc(-c2c(C(F)(F)F)ccc(CNC(=O)[C@H]3C[C@H](OCc4cccc(F)c4F)C3)c2F)[nH]c(=O)c1F` [Example 240, trans-3-[(2,3-difluorobenzyl)oxy]-N-[3-(4-ethyl-5-fluoro-6-oxo-1,6-dihydropyrimidin-2-yl)-2-fluoro-4-(trifluoromethyl)benzyl]cyclobutane-1-carboxamide] showed an IC50 of 3.2 nM.
Work on `CCc1nc(-c2c(C(F)(F)F)ccc(CNC(=O)[C@H]3C[C@H](OCc4ccc(F)cc4Cl)C3)c2F)[nH]c(=O)c1F` [Example 241, trans-3-[(2-chloro-4-fluorobenzyl)oxy]-N-[3-(4-ethyl-5-fluoro-6-oxo-1,6-dihydropyrimidin-2-yl)-2-fluoro-4-(trifluoromethyl)benzyl]cyclobutane-1-carboxamide] yielded an IC50 of under 1 nM.
With `CCc1nc(-c2c(C(F)(F)F)ccc(CNC(=O)[C@H]3C[C@H](OCc4cccc(Cl)c4F)C3)c2F)[nH]c(=O)c1F` [Example 242, trans-3-[(3-chloro-2-fluorobenzyl)oxy]-N-[3-(4-ethyl-5-fluoro-6-oxo-1,6-dihydropyrimidin-2-yl)-2-fluoro-4-(trifluoromethyl)benzyl]cyclobutane-1-carboxamide] the IC50 was under 1 nM.
`CCc1nc(-c2c(C(F)(F)F)ccc(CNC(=O)[C@H]3C[C@H](OCc4cc(Cl)ccc4F)C3)c2F)[nH]c(=O)c1F` [Example 243, trans-3-[(5-chloro-2-fluorobenzyl)oxy]-N-[3-(4-ethyl-5-fluoro-6-oxo-1,6-dihydropyrimidin-2-yl)-2-fluoro-4-(trifluoromethyl)benzyl]cyclobutane-1-carboxamide] gave an IC50 of under 1 nM.
`CCc1nc(-c2c(C(F)(F)F)ccc(CNC(=O)[C@H]3C[C@H](OCc4ccc(F)c(Cl)c4)C3)c2F)[nH]c(=O)c1F` [Example 244, trans-3-[(3-chloro-4-fluorobenzyl)oxy]-N-[3-(4-ethyl-5-fluoro-6-oxo-1,6-dihydropyrimidin-2-yl)-2-fluoro-4-(trifluoromethyl)benzyl]cyclobutane-1-carboxamide] was tested, and the IC50 was under 1 nM.
`CCc1nc(-c2c(C(F)(F)F)ccc(CNC(=O)[C@H]3C[C@H](OCc4cc(F)cc(Cl)c4)C3)c2F)[nH]c(=O)c1F` [Example 245, trans-3-[(3-chloro-5-fluorobenzyl)oxy]-N-[3-(4-ethyl-5-fluoro-6-oxo-1,6-dihydropyrimidin-2-yl)-2-fluoro-4-(trifluoromethyl)benzyl]cyclobutane-1-carboxamide] showed an IC50 of under 1 nM.
In the case of `Cc1nc(-c2c(C(F)(F)F)ccc(CNC(=O)[C@H]3C[C@H](OCc4cccc(Cl)c4)C3)c2F)[nH]c(=O)c1C` [Example 246, trans-3-[(3-chlorobenzyl)oxy]-N-[3-(4,5-dimethyl-6-oxo-1,6-dihydropyrimidin-2-yl)-2-fluoro-4-(trifluoromethyl)benzyl]cyclobutane-1-carboxamide], the IC50 is reported as under 1 nM.
Work on `O=c1[nH]c(-c2c(C(F)(F)F)ccc(CNC(=O)[C@H]3C[C@H](OCc4cccc(Cl)c4)C3)c2F)nc2c1CCC2` [Example 247, trans-3-[(3-chlorobenzyl)oxy]-N-[2-fluoro-3-(4-oxo-4,5,6,7-tetrahydro-3H-cyclopenta[d]pyrimidin-2-yl)-4-(trifluoromethyl)benzyl]cyclobutane-1-carboxamide] yielded an IC50 of under 1 nM.
`O=C(NCc1ccc(C(F)(F)F)c(-c2nc(C(F)(F)F)cc(=O)[nH]2)c1F)C1CCC(Oc2ccc(C(F)(F)F)cn2)CC1` (stereo not drawn) [Example 248, N-{2-fluoro-3-[6-oxo-4-(trifluoromethyl)-1,6-dihydropyrimidin-2-yl]-4-(trifluoromethyl)benzyl}-4-{[5-(trifluoromethyl)pyridin-2-yl]oxy}cyclohexane-1-carboxamide] gave an IC50 of under 1 nM.
With `O=c1cc(C(F)(F)F)nc(-c2c(C(F)(F)F)ccc(CNC(=O)[C@H]3C[C@H](Oc4ccc(C(F)(F)F)cn4)C3)c2F)[nH]1` [Example 249, trans-N-{2-fluoro-3-[6-oxo-4-(trifluoromethyl)-1,6-dihydropyrimidin-2-yl]-4-(trifluoromethyl)benzyl}-3-{[5-(trifluoromethyl)pyridin-2-yl]oxy}cyclobutane-1-carboxamide] the IC50 was under 1 nM.
`O=c1cc(C(F)(F)F)nc(-c2c(C(F)(F)F)ccc(CNC(=O)[C@H]3C[C@@H](Oc4ccc(C(F)(F)F)cn4)C3)c2F)[nH]1` [Example 250, cis-N-{2-fluoro-3-[6-oxo-4-(trifluoromethyl)-1,6-dihydropyrimidin-2-yl]-4-(trifluoromethyl)benzyl}-3-{[5-(trifluoromethyl)pyridin-2-yl]oxy}cyclobutane-1-carboxamide] showed an IC50 of under 1 nM.
For `O=c1cc(C(F)(F)F)nc(-c2c(C(F)(F)F)ccc(CNC(=O)[C@H]3C[C@H](Oc4ccccc4Cl)C3)c2F)[nH]1` [Example 251, trans-3-(2-chlorophenoxy)-N-{2-fluoro-3-[6-oxo-4-(trifluoromethyl)-1,6-dihydropyrimidin-2-yl]-4-(trifluoromethyl)benzyl}cyclobutane-1-carboxamide], the IC50 was under 1 nM.
